Laboratory results from patent US6468972B1, “Method to promote, stimulate and/or delay hair loss by a brady kinin antagonist” (Societe L'Oreal S.A., priority 1995, dated 2002).

Legend:
[1] = Effect on the increase in intracellular calcium concentration induced by bradykinin (FURA 2 spectrofluorimetry); assay type: cell-based, human; details: Homo sapiens, Keratinocyte, preincubation at least 120 seconds before 1 μM bradykinin, ORS keratinocytes
Description: (§1) a) Culturing Keratinocytes of the Outer Sheath of Human Hair Follicles: This procedure is a variant of that described by YANG et al., J. Invest. Dermatol., 1993, 101 (5), 652-659. After decontamination, a lifting scalp biopsy is treated with dispase in a proportion of 2.4 units/ml for 20 hours at 4° C. The outer sheath of the hair follicles (ORS) is then isolated by dissection, followed by treatment with 0.125% trypsin for 30 minutes at 37° C. The cells thus prepared are then cultured in conditioned Green medium for 6 days. […] The cells are then placed on glass slides 10 mm in diameter and cultured in KGM medium. b) Measurement of the Intracellular Calcium Concentration: The measurements are taken according to the procedures used conventionally by those skilled in the art and which are found, for example, in Cellular Calcium: A Practical Approach, published by J. G. McCormack and P. H. Cobbold; IRL PRESS (1991). The cells are incubated for 1 hour at 37° C. in 10 mM HEPES buffer, 5 mM KCl, 140 mM NaCl, 10 mM glucose, 1 mM MgCl2, 2 mM CaCl2 with 5 μM FURA 2 acetomethyl ester and Pluronic (5 mg/10 ml). After rinsing in the buffer, the slides are placed in an adapted support and the reading is taken using a PERKIN ELMER LS 50 B spectrofluorimeter at 37° C. The cells are preincubated with or without Minoxidil or Minoxidil sulphate, for at least 120 seconds before the injection of 1 μM bradykinin.

[2] = tested on: bradykinin-induced increase in intracellular calcium concentration in keratinocytes of the outer sheath of human hair follicles; assay: as above; assay type: cell-based; details: for Effect on the increase in intracellular calcium concentration induced by bradykinin (in words): summary statement of Example 1; for % Inhibition (1 μM bradykinin): preincubation at least 120 seconds before 1 μM bradykinin, ORS keratinocytes
Description: as §1

Compound	inhibition at 10 µM ([1]; product concentration 10 μM) [%]	inhibition at 50 µM ([1]; product concentration 50 μM) [%]	inhibition at 100 µM ([1]; product concentration 100 μM) [%]	inhibition at 1000 µM ([1]; product concentration 1000 μM) [%]	Effect on the increase in intracellular calcium concentration induced by bradykinin (in words) [2]	% Inhibition (1 μM bradykinin) ([2]; product concentration 10 μM) [%]	% Inhibition (1 μM bradykinin) ([2]; product concentration 50 μM) [%]	% Inhibition (1 μM bradykinin) ([2]; product concentration 100 μM) [%]	% Inhibition (1 μM bradykinin) ([2]; product concentration 1000 μM) [%]
Nc1cc(N2CCCCC2)nc(N)[n+]1[O-] [Minoxidil, 2,4-diamino-6-piperidinopyrimidine 3-oxide]	0	15	25	31	inhibit the increase in intracellular calcium concentration induced by bradykinin	–	–	–	–
Minoxidil sulphate	–	–	–	–	inhibit the increase in intracellular calcium concentration induced by bradykinin	0	31	54	70
